Data: patent publication US20100129805A1, “SLC1A1 ANTIPSYCHOTIC DRUG RESPONSE MARKERS” (priority 2006, published 2010)

System: patients with DSM-III-R or DSM-IV diagnoses of SCZ refractory or intolerant to conventional antipsychotics
Assay: Clozapine response after 6 months treatment (% score change on BPRS, BPOS, BNEG) by SLC1A1 genotype/haplotype
Assay type: in vivo, human
Details: 6 months clozapine
Text: Effect of 5 Single Nucleotide Polymorphisms (SNPs) Across the SLC1A1 Gene on Clozapine (CZ) Response After 6 Months Treatment in Two Distinct Schizophrenic Populations (Caucasian and African-American) Refractory or Intolerant to Conventional Antipsychotics.
97 patients (73 Caucasians and 24 African-Americans) with DSM-III-R or DSM-IV diagnoses of SCZ assessed from Case Western Reserve University, Cleveland, Ohio.
No significant differences were observed between Caucasians and African-Americans in terms of gender ratio (P=0.234) or mean age (P=0.561). Almost all subjects met criteria for treatment refractoriness or intolerance to typical antipsychotic therapy as defined by Kane et al (1988). Patients underwent a washout period of 2 to 4 weeks during which, unless clinically necessary, they received no medications before starting clozapine (CZ). CZ treatment was continued for a minimum of 6 months during which patients were evaluated prospectively. CZ blood levels were monitored throughout course of treatment to ascertain compliance,
Treatment response is evaluated as a percentage (%) score change from baseline using the 18-item Brief Psychiatric Rating Scale (BPRS), a 4-item positive symptom subscale (BPOS) and 3-item negative symptom subscale (BNEG)—after 6 months of clozapine treatment. % score change=(6 months score−baseline score)/Baseline score. A negative value of % score change in each scale would indicate an improvement in symptoms measured by that particular scale.
Blood samples were collected from clinical sites and sent to the Centre for Addiction and Mental Health (CAMH) in Toronto, ON, Canada—where genotyping of patients' DNA was performed by 5′-exonuclease fluorescence assays. The 5 informative SNPs (minor allele frequency>20%) spanning SLC1A1 were chosen based on location (see Table 1)—with 2 in coding regions and 3 from different intronic regions and different haplotype blocks. Laboratory staff was blind to the psychiatric ratings.
Within each ethnic population, individual SNP analyses of % score changes (continuous data) were performed using Analysis of Variance (ANOVA) in STATA ver7.0. Haplotype analysis of unphased quantitative data was performed using QTPHASE (Dudbridge, 2003).

Question: CN1CCN(C2=Nc3cc(Cl)ccc3Nc3ccccc32)CC1 [clozapine] was tested. Which “Mean BPOS % score change” value (haplotype 1-1-1 in SNP window 1-2-3, Caucasians and African-Americans combined) did it give?
Answer: The value was −0.198.

Question: What about the “Mean BNEG % score change” value (haplotype 1-1 in SNP window 4-5, African-Americans) of the same molecule?
Answer: Its value is −0.379.

Question: What about the “Mean BNEG % score change” value (haplotype 1-2-1 in SNP window 3-4-5, African-Americans) of the same molecule?
Answer: Its value is 0.086.

Question: And the “Mean BNEG % score change” value (haplotype 1-2 in SNP window 3-4, African-Americans)?
Answer: Its value is 0.143.

Question: And the “Mean BNEG % score change” value (haplotype 2-1-1 in SNP window 2-3-4, Caucasians)?
Answer: The value was 0.295.

Question: What about the “Mean BNEG % score change” value (haplotype 2-1-1 in SNP window 3-4-5, African-Americans) of the same molecule?
Answer: The value was −0.379.

Question: What about the “Mean BNEG % score change” value (haplotype 2-1 in SNP window 3-4, African-Americans) of the same molecule?
Answer: The value was −0.341.

Question: What about the “Mean BNEG % score change” value (haplotype 2-1 in SNP window 4-5, African-Americans) of the same molecule?
Answer: The value was 0.107.

Question: And the “Mean BNEG % score change” value (haplotype 2-2-1 in SNP window 1-2-3, Caucasians and African-Americans combined)?
Answer: The value was 0.592.

Question: And the “Mean BNEG % score change” value (haplotype 2-2-1 in SNP window 1-2-3, Caucasians)?
Answer: Its value is 0.889.

Question: And the “Mean BNEG % score change” value (rs301434 genotype C/C, Caucasians & African-Americans combined)?
Answer: The value was −0.115.

Question: And the “Mean BPRS % score change” value (rs301434 genotype C/C, Caucasians, negative = improvement)?
Answer: The value was −0.248.

Question: What about the “Mean BNEG % score change” value (rs301434 genotype T/C, Caucasians & African-Americans combined) of the same molecule?
Answer: Its value is −0.136.

Question: What about the “Mean BPRS % score change” value (rs301434 genotype T/C, Caucasians, negative = improvement) of the same molecule?
Answer: Its value is −0.310.

Question: What about the “Mean BNEG % score change” value (rs301434 genotype T/T, Caucasians & African-Americans combined) of the same molecule?
Answer: Its value is 0.636.

Question: And the “Mean BPRS % score change” value (rs301434 genotype T/T, Caucasians, negative = improvement)?
Answer: Its value is 1.310.

Question: What about the “Mean BNEG % score change” value (rs1980943 genotype A/A, African-Americans, negative = improvement) of the same molecule?
Answer: Its value is 3.000.

Question: What about the “Mean BNEG % score change” value (rs1980943 genotype G/A, African-Americans, negative = improvement) of the same molecule?
Answer: Its value is −0.378.

Question: What about the “Mean BNEG % score change” value (rs1980943 genotype G/G, African-Americans, (6 months score-baseline score)/baseline score, negative = improvement) of the same molecule?
Answer: The value was 0.067.
